pIC50: −log10 of the molar value. “Also recorded” adds a separate entry of the source. Like-named read-outs stand apart in the source and are kept apart here.
Experiments:
CDAHFD NASH mouse model [1] = experiment: 10-week CDAHFD study, comparison with CWHM12; format: in vivo; conditions: 4 weeks treatment in 10-week CDAHFD study
Method: (§1) CDAHFD injury is a rodent model of NASH displaying liver fat accumulation, inflammation, and fibrosis (Matsumoto 2013). Three types of studies were performed: 1) prophylactic, Compound 1 in an abbreviated 3-week CDAHFD model; 2) therapeutic, Compound 1 for 6 weeks in the 11- to 12-week CDAHFD model; and 3) Compound 1 for 4 weeks in a 10-week CDAHFD model.
Although pan-αv inhibition with CWHM12 reduced pSMAD and OHP levels, selective αvβ1 inhibition was sufficient for antifibrotic activity.

[2] = system: precision cut liver slices from cirrhotic NASH patient explants; experiment: Profibrotic gene expression and fibrosis biomarkers in precision cut liver slices; format: cell-based, human; set-up: reduction of gene expression of collagen, type 1, alpha 1 (COL1A1) / reduction of the level of FBN-C in culture media / reduction of PRO-C1 in culture media / reduction of PRO-C3 in culture media / reduction of PRO-C4 in culture media: concentration or dose not given beside the values
Method: The ability of Compound 1 to inhibit the expression of profibrotic genes and decrease biomarkers of fibrosis was measured in precision cut liver slices generated using cirrhotic liver tissues from NASH patient explants and from rodent models of liver fibrosis and NASH.
Data are mean +/−standard deviation from the 5 cirrhotic NASH patients. DMSO was used as the solvent and utilized at a constant concentration (0.1%) across the different groups. […] was used as a positive control.

CDAHFD NASH mouse model [3] = experiment: Prophylactic abbreviated 3-week CDAHFD NASH model; format: in vivo; conditions: high dose
Method: as §1

[4] = system: murine CCl4 model of liver fibrosis; experiment: 3-week murine CCl4 model of liver fibrosis; format: in vivo, mice; conditions: all doses, dosed during the final week of injury
Method: Antifibrotic activity of Compound 1 was established in an abbreviated, 3-week, murine CCl4 model of liver fibrosis. CCl4 is a hepatotoxin that when injected into mice results in liver fibrosis (Constandinou 2005). Compound 1 was dosed during the final week of injury.

CDAHFD NASH mouse model [5] = experiment: Therapeutic 11- to 12-week CDAHFD injury studies; format: in vivo
Method: as §1
Compound 1 was tested therapeutically in 11- to 12-week CDAHFD injury studies at medium, high and highest doses across 3 independent studies.

human integrin αvβ6 [6] = target: T1, human integrin αvβ6 (Homo sapiens, UniProt P06756+P18564); experiment: Solid phase integrin binding assay (TGFβ1 LAP binding)
Method: (§2) Microplates were coated with recombinant human integrin αVβ1 or αVβ6 (2 μg/mL) in PBS (100 μL/well 25° C., overnight). The coating solution was removed, washed with wash buffer (0.05% Tween 20; 0.5 mM MnCl2; in 1×TBS). The plate was blocked with 200 μL/well of Block Buffer (1% BSA; 5% sucrose; 0.5 mM MnCl2; in 1×TBS) at 37° C. for 2 h. Dilutions of Compound 1 and recombinant TGFβ1 LAP (0.67 μg/mL) in binding buffer (0.05% BSA; 2.5% sucrose; 0.5 mM MnCl2; in 1×TBS) were added. The plate was incubated for 2 hours at 25° C., washed, and incubated for 1 hour with Biotin-Anti-hLAP. Bound antibody was detected by peroxidase-conjugated streptavidin. The IC50 values for the testing compound were calculated by a four-parameter logistic regression.

human integrin αVβ1 [7] = target: T2, human integrin αVβ1 (Homo sapiens, UniProt P05556+P06756); experiment: as above
Method: as §2

human integrin αvβ6 [8] = target: T1, human integrin αvβ6; experiment: ALPHASCREEN proximity-based integrin binding assay; set-up: 6xHis (on the heterodimer); conditions: read-out: Proximity-Based Assy IC50, αvβ6
Method: (§3) Compound 1 was tested for αVβ1 or αVβ6 integrin biochemical potency using the ALPHASCREEN® (Perkin Elmer, Waltham, Mass.) proximity-based assay (a bead-based, non-radioactive Amplified Luminescent Proximity Homogeneous Assay) as described previously (Ullman E F et al., Luminescent oxygen channeling immunoassay: Measurement of particle binding kinetics by chemiluminescence. Proc. Natl. Acad. Sci. USA, Vol. 91, pp. 5426-5430, June 1994). To gauge the potency of inhibitors of binding to human integrin αVβ1 or αvβ6, the inhibitor compound and the integrin were incubated together with recombinant TGFβ1 LAP and biotinylated anti-LAP antibody plus acceptor and donor beads, following the manufacturer's recommendations. The donor beads were coated with streptavidin. […] All incubations occurred at room temperatures in 50 mM Tris-HCl, pH 7.5, 0.1% BSA supplemented with 1 mM each CaCl2 and MgCl2. The order of reagent addition was as follows: 1. αVβ1 or αVβ6 integrin, test inhibitor Compound 1, LAP, biotinylated anti-LAP antibody and acceptor beads were all added together. 2. After 2 hours, donor beads were added. After another 30 min incubation, samples were read.

human integrin αVβ1 [9] = target: T2, human integrin αVβ1; experiment: ALPHASCREEN proximity-based integrin binding assay; set-up: 6xHis (on the heterodimer); conditions: read-out: Proximity-Based Assy IC50, αvβ1
Method: as §3

[10] = system: healthy male and female participants; experiment: First-in-human single and multiple ascending dose study; format: in vivo; conditions: single and multiple (7 days) ascending doses, thus far
Method: Part A of the study was a first-in-human, randomized, double-blind, placebo-controlled, parallel-group, single ascending dose study of the safety, tolerability, and PK of Compound 1 in a maximum of […] healthy male and female (non-childbearing potential) participants. Forty participants will be enrolled in up to 5 sequential cohorts.
Part B of the study is on-going and was initiated after the first 2 cohorts in Part A of the study had been completed. The doses in Part B were determined from Part A of the study and were not higher than the highest dose that was administered in Part A of the study.
Part B of the study is a randomized, double-blind, placebo-controlled, parallel-group, multiple ascending dose study of the PK, PD, safety, and tolerability of Compound 1 administered for 7 days in a maximum of 40 healthy male and female (non-childbearing potential) participants.

[11] = system: healthy subjects, patients with T2DM, obese patients; conditions: cited from earlier work
[12] = system: Patients with histologically confirmed NASH (F1-F3) or phenotypic NASH; experiment: Placebo-controlled, randomized Phase 2a study of licogliflozin, 12 weeks (NCT03205150); format: in vivo, human
Method: Method: Patients with histologically confirmed NASH (F1-F3) or phenotypic NASH (BMI≥27 kg/m^2 in non-Asians or ≥23 kg/m^2 in Asians, ALT≥50 (males) or ≥35 (females) and type 2 diabetes (T2DM)) received daily oral licogliflozin at 150 mg, 30 mg or placebo in a 2:2:1 ratio for 12 weeks (NCT03205150). The primary endpoint was the effect on ALT level after 12 weeks of treatment. Secondary endpoints include improvement in body weight, liver fat content and AST, amongst others. The study size was 110 of which 77 completed (placebo (n=18); licogliflozin 30 mg (n=25) and licogliflozin 150 mg (n=34)) and are included in the interim analysis.

[13] = did not achieve statistical significance
[14] = two days of treatment, slices from 5 cirrhotic NASH patients
[15] = all doses (medium, high, highest), therapeutic, 3 independent studies
[16] = 30 mg, 12 weeks, interim analysis
[17] = 150 mg, 12 weeks, interim analysis

T2 sequence (P06756 31-992 limits assumed): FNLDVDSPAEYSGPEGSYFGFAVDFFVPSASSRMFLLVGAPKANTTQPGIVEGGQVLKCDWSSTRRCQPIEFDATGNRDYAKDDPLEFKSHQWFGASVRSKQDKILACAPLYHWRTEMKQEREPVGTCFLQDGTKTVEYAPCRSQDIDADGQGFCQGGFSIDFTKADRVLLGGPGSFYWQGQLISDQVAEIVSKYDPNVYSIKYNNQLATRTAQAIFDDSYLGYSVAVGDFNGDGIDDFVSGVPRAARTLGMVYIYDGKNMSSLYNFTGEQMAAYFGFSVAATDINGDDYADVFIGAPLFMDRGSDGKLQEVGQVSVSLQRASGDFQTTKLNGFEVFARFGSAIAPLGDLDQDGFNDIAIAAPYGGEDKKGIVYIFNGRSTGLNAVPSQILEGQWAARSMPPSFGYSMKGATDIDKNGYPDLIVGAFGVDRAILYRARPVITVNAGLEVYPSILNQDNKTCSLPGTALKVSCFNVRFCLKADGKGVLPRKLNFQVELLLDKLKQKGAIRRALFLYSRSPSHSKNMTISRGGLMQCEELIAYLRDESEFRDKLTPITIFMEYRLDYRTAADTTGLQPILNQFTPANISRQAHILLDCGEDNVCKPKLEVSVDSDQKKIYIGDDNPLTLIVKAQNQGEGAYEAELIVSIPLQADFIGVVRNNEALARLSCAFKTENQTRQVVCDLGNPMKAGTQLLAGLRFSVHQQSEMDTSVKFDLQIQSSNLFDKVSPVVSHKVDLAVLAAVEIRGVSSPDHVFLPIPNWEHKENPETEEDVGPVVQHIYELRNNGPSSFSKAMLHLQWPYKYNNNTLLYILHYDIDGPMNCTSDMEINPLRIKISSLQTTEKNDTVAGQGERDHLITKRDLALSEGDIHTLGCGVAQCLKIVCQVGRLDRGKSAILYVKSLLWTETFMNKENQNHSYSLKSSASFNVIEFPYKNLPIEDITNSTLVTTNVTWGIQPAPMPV
T2 sequence (P05556 21-728 limits assumed): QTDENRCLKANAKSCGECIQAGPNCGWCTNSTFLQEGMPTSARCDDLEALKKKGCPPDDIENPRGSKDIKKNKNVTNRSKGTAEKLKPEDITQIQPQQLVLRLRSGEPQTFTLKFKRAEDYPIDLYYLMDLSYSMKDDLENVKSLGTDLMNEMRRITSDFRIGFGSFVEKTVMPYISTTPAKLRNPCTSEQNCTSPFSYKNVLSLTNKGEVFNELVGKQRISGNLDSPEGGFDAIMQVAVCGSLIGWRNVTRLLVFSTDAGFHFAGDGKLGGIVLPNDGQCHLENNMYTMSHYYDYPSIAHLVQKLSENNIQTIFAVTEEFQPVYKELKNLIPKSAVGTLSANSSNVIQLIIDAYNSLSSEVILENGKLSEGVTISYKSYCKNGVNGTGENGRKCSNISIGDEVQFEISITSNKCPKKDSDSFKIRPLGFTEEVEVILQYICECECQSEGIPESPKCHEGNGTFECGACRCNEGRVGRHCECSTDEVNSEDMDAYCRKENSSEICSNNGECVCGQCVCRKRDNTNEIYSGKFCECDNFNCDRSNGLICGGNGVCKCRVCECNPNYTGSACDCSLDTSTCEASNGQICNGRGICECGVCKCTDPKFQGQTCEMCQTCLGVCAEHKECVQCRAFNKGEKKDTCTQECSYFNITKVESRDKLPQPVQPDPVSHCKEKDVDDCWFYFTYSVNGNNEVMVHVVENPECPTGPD
T1 sequence (P06756 31-992 limits assumed): as the sequence (P06756 31-992 limits assumed) above
T1 sequence (P18564 22-707 limits assumed): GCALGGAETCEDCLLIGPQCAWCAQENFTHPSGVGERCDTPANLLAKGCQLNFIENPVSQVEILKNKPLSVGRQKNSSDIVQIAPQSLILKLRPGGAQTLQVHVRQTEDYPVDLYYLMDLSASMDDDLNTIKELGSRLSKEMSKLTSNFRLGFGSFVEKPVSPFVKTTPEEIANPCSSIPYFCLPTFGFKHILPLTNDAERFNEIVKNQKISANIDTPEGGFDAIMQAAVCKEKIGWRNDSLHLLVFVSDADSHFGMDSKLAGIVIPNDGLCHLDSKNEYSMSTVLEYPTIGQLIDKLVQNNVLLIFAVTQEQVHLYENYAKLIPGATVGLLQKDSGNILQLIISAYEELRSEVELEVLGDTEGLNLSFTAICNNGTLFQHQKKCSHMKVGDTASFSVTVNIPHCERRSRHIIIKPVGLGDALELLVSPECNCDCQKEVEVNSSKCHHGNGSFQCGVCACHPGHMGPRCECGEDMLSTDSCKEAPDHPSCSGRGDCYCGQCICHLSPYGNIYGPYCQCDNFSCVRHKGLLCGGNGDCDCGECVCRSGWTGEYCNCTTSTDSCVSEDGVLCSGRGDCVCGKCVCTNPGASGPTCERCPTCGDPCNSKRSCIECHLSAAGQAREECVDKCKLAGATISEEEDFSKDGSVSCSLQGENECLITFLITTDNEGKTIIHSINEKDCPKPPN

CC(C)(C)c1cc(Br)cc([C@H](CC(=O)O)NC(=O)CNC(=O)c2cc(O)cc(NC3=NCC(O)CN3)c2)c1 (stereo partly drawn) [CWHM12, (3S)—N-[3-hydroxy-5-[(1,4,5,6-tetrahydro-5-hydroxy-2-pyrimidinyl)amino]benzoyl] glycyl-3-[3-bromo-5-(1,1-dimethylethyl)phenyl]-β-alanine]
reduction of OHP concentrations (CDAHFD NASH mouse model [1]): 30%
reduction of pSMAD3 levels (CDAHFD NASH mouse model [1]): 61%

CC1(C(=O)N[C@@H](CCCCCCCc2ccc3c(n2)NCCC3)C(=O)O)CCOCC1 [Compound 1, (S)-2-(4-methyltetrahydro-2H-pyran-4-carboxamido)-9-(5,6,7,8-tetrahydro-1,8-naphthyridin-2-yl)nonanoic acid]
reduction of OHP concentrations (CDAHFD NASH mouse model [1]): 24%
reduction of pSMAD3 levels (CDAHFD NASH mouse model [1]): 40%
reduction of PRO-C1 in culture media [2, 13]: 34%
reduction of PRO-C3 in culture media [2, 13]: 16%
reduction of PRO-C4 in culture media [2, 13]: 15%
reduction of the level of FBN-C in culture media ([2]; significant): 26%
metalloproteinase inhibitor 1 (TIMP1) gene expression [2, 14]: reduced
reduction of gene expression of collagen, type 1, alpha 1 (COL1A1) [2, 14]: 39%
expression of Ehhadh (CDAHFD NASH mouse model [3]; both studies): significantly elevated
gene expression of collagens (CDAHFD NASH mouse model [3]; one of the two studies): Significantly reduced
decrease of pSMAD3 levels in the liver (CDAHFD NASH mouse model [3]; prophylactic, 3-week CDAHFD): 19%
reduction of hepatic OHP concentrations (CDAHFD NASH mouse model [3]; prophylactic, both studies): ~30%
Levels of phosphorylated SMAD3 (pSMAD3)/SMAD3 in the liver [4]: significantly reduced
hepatic Col1a1, Col1a2, and Col3a1 expression [4]: significant reduction; also recorded: significantly reduced
reduction of hepatic OHP (CDAHFD NASH mouse model [5]; [15]): up to 38%
reduction of pSMAD3 levels (CDAHFD NASH mouse model [5]; [15]): up to 57%
Collagen gene expression (Col1a1 and Col3a1) (CDAHFD NASH mouse model [5]; high and highest doses): significantly reduced
gene expression of profibrotic markers Ctgf, Mmp-2, and Timp1 (CDAHFD NASH mouse model [5]; high and highest doses): significantly reduced
Gene expression of Acox1 and Ehhadh (CDAHFD NASH mouse model [5]; mouse, in vivo): significantly increased
collagen area (histological analysis) (CDAHFD NASH mouse model [5]; mouse, in vivo): significant reduction
composite fibrosis score (second harmonic generation imaging): quantity and quality of the collagen fibers (CDAHFD NASH mouse model [5]; mouse, in vivo): significant reduction
reduction in OHP concentration (CDAHFD NASH mouse model [5]; separate sentence of b235, dose not stated): 24%
pIC50 (human integrin αvβ6 [6]): > 7.30
pIC50 (human integrin αVβ1 [7]): > 7.30
pIC50 (human integrin αvβ6 [8]): > 7.30
pIC50 (human integrin αVβ1 [9]): 6.60 to 7.30
tolerability in healthy volunteers [10]: well tolerated

CCc1ccc([C@@H]2O[C@H](CO)[C@@H](O)[C@H](O)[C@H]2O)cc1Cc1ccc2c(c1)OCCO2 [licogliflozin, (2S,3R,4R,5S,6R)-2-(3-((2,3-dihydrobenzo[b][1,4]dioxin-6-yl)methyl)-4-ethylphenyl)-6-(hydroxymethyl)tetrahydro-2H-pyran-3,4,5-triol]
weight loss in obese patients ([11]; 150 mg daily dose, 12 week treatment): ~6%
safety and tolerability ([11]; 150 mg once daily, twelve weeks, normoglycemic and dysglycemic subjects): generally safe and well tolerated
dose-limiting toxicity ([11]; 150 mg once daily, twelve weeks): diarrhea
safety and tolerability ([11]; healthy subjects and patients with T2DM): safe and tolerated
pharmacokinetic profile ([11]; human, in vivo): favorable pharmacokinetic profile
placebo-adjusted weight loss ([11]; over 2 weeks, healthy subjects and patients with T2DM): up to 3%
Absolute reduction in liver fat [12, 16]: 2.71%
Diarrhea (most common adverse event), patients reporting [12, 16]: 40%
Placebo adjusted reduction in HbA1c (absolute change) [12, 16]: 0.81%
Relative reduction in liver fat content [12, 16]: 10%
patients achieving at least 5% absolute reduction in liver fat [12, 16]: 43.5%
proportion of patients with at least a 30% relative reduction in liver fat content [12, 16]: 39.5%
reduction in AST [12, 16]: 23%
reduction in GGT [12, 16]: 26%
placebo-adjusted reduction in GGT ([12]; 30 mg, Week 12, full analysis): 24%
placebo-adjusted reduction in serum ALT ([12]; 30 mg, Week 12, full analysis): 21%
placebo-adjusted reduction in serum AST ([12]; 30 mg, Week 12, full analysis): 21%
Absolute reduction in liver fat [12, 17]: 4.45%
Diarrhea (most common adverse event), patients reporting [12, 17]: 76.5%
Placebo adjusted reduction in HbA1c (absolute change) [12, 17]: 0.96%
Relative reduction in liver fat content [12, 17]: 22%
patients achieving at least 5% absolute reduction in liver fat [12, 17]: 63.3%
proportion of patients with at least a 30% relative reduction in liver fat content [12, 17]: 66.7%
reduction in AST [12, 17]: 30%
reduction in GGT [12, 17]: 32%
placebo-adjusted reduction in GGT ([12]; 150 mg, Week 12, full analysis): 36%
placebo-adjusted reduction in serum ALT ([12]; 150 mg, Week 12, full analysis): 32%
placebo-adjusted reduction in serum AST ([12]; 150 mg, Week 12, full analysis): 32%
safety and tolerability ([12]; 12 weeks of treatment): safe and tolerable
absolute and relative liver fat content ([12]; 12 weeks, full analysis): Dose-dependent decreases
HOMA-IR (insulin sensitivity) ([12]; Week 12, full analysis): improvements
HbA1c (glycemic control) ([12]; Week 12, full analysis): improvements
body weight compared with placebo ([12]; Week 12, full analysis): Statistically significant reductions
waist circumference compared with placebo ([12]; Week 12, full analysis): Statistically significant reductions
Placebo adjusted reduction in body weight ([12]; both doses (150 mg and 30 mg), 12 weeks, interim analysis): ~4%

Source: patent US20230060422A1, “COMBINATION TREATMENT OF LIVER DISEASES USING INTEGRIN INHIBITORS” (NOVARTIS AG, priority 2019, published 2023)
